Measured values taken from the supplement of paper PMC10307832.

Compound: CC1=CN=C(N=C1C2=CNC(=C2)C(=O)N[C@H](CO)C3=CC(=CC=C3)Cl)NC4=C(C=C(C=C4)F)Cl [VX-11e]
Experiment: relative viability (nuclei count vs DMSO), 5 days (fraction); higher = more cells survive
Summary of the method: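 Viability was defined as treated-well nuclei divided by vehicle-well nuclei, with the median taken over replicate plates. Cells from lung cancer lines sat overnight at 37 °C in 1536-well plates, received five √10-spaced library-drug doses by pinning on vehicle-anchored plates, and grew 5 days without medium change before one-step fixation, permeabilisation and Hoechst staining, 4× imaging and MetaXpress nuclear counts. Only plates with control CV under 25% and at least one doubling were kept.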

| Cell Line | relative viability (0.04 µM) | relative viability (0.1265 µM) | relative viability (0.4 µM) | relative viability (1.265 µM) | relative viability (4 µM) |
| --- | --- | --- | --- | --- | --- |
| 201T | 0.971 | 0.985 | 0.883 | 0.691 | 0.951 |
| A-427 | 0.862 | 0.854 | 0.927 | 0.933 | 0.419 |
| ABC-1 | 0.83 | 0.888 | 0.938 | 0.83 | 0.723 |
| BEN | – | 0.903 | 1.03 | 0.662 | 0.782 |
| CAL-12T | 0.955 | 0.942 | 0.964 | 0.715 | 0.376 |
| COR-L23 | 1.17 | 0.92 | 0.975 | 0.778 | 0.358 |
| COR-L 105 | 0.845 | 0.894 | 0.845 | 0.516 | 0.383 |
| Calu-6 | 1.08 | 0.978 | 0.975 | 0.513 | 0.163 |
| ChaGo-K-1 | 0.926 | 0.903 | 0.925 | 1.03 | 0.905 |
| EBC-1 | 1.06 | 1.01 | 0.765 | 0.77 | 0.221 |
| EKVX | 0.906 | 1.03 | 0.953 | 0.898 | 0.489 |
| EMC-BAC-2 | 0.903 | 0.875 | 1.43 | 0.998 | 0.663 |
| EPLC-272H | 0.787 | 0.759 | 0.556 | 0.706 | 0.419 |
| H3255 | 1.03 | 0.925 | 0.896 | 0.911 | 0.875 |
| HARA | 0.969 | 0.939 | 0.832 | 0.427 | 0.326 |
| HCC-15 | 1.05 | 1.01 | – | 0.669 | 0.285 |
| HCC-44 | 1 | 0.941 | 0.907 | 0.915 | 0.733 |
| HCC-78 | 0.934 | 1.02 | 1.01 | 0.68 | 0.667 |
| HCC-366 | 0.997 | 0.936 | – | 1.03 | 0.676 |
| HCC-827 | 1.09 | 0.988 | 1.07 | 1.14 | 0.958 |
| HOP-62 | 1.04 | 0.986 | 0.921 | 0.595 | 0.567 |
| IA-LM | 0.767 | 0.916 | 0.913 | 0.468 | 0.129 |
| LC-2-ad | 1.01 | 0.823 | 0.662 | 0.603 | 0.66 |
| LCLC-97TM1 | 0.911 | 0.889 | 0.797 | 0.499 | 0.541 |
| LCLC-103H | 0.939 | 0.924 | 0.981 | 0.783 | 0.805 |
| LK-2 | 0.908 | 0.983 | 0.821 | 0.588 | 0.705 |
| LOU-NH91 | 0.855 | 0.924 | – | 0.733 | 0.797 |

| Cell Line | relative viability (0.04 µM) | relative viability (0.1265 µM) | relative viability (0.4 µM) | relative viability (1.265 µM) | relative viability (4 µM) |
| --- | --- | --- | --- | --- | --- |
| LU99A | 1.03 | 0.933 | 0.802 | 0.77 | 0.394 |
| LXF-289 | 1.06 | 0.977 | 0.773 | 0.93 | 0.672 |
| NCI-H23 | 0.82 | 0.854 | 0.198 | 0.411 | 0.271 |
| NCI-H322M | 0.814 | 0.517 | 0.728 | 0.727 | 0.605 |
| NCI-H358 | 1.01 | 0.835 | 0.595 | 0.805 | 0.266 |
| NCI-H441 | 1.19 | 1.01 | – | 1.04 | 0.676 |
| NCI-H460 | 1.03 | 0.972 | 0.858 | 0.886 | 0.342 |
| NCI-H520 | 0.872 | 1.06 | 0.874 | 1.25 | 0.898 |
| NCI-H522 | 0.796 | 0.876 | 0.738 | 0.614 | 0.666 |
| NCI-H596 | 0.916 | 0.901 | 0.943 | 0.525 | 0.578 |
| NCI-H647 | 0.814 | 0.884 | 0.494 | 0.652 | 0.426 |
| NCI-H650 | 0.781 | 0.925 | 1.04 | 0.872 | 0.974 |
| NCI-H661 | 1.01 | 1.02 | 0.947 | 1.04 | 0.724 |
| NCI-H727 | 0.784 | 0.933 | 0.687 | 0.551 | 0.347 |
| NCI-H838 | 0.965 | 0.913 | 0.842 | 0.852 | 0.736 |
| NCI-H1299 | 1.01 | 0.981 | 1.03 | 1.03 | 0.49 |
| NCI-H1355 | 0.766 | 0.842 | 0.771 | 0.756 | 0.437 |
| NCI-H1395 | 0.781 | 0.846 | 0.586 | 0.717 | 0.611 |
| NCI-H1437 | 0.98 | 0.906 | 0.924 | 0.746 | 0.621 |
| NCI-H1563 | 0.983 | 0.916 | 0.908 | 0.944 | 0.82 |
| NCI-H1648 | 0.978 | 0.958 | 1.54 | 0.694 | 0.624 |
| NCI-H1650 | 0.866 | 0.886 | 0.521 | 0.668 | 0.652 |
| NCI-H1651 | 0.934 | 0.921 | 0.959 | 0.861 | 0.939 |
| NCI-H1666 | 1.02 | 0.978 | 0.764 | 0.805 | 0.679 |
| NCI-H1703 | 0.828 | 1.11 | 0.632 | 0.961 | 0.74 |
| NCI-H1734 | 0.835 | 0.858 | 0.635 | 0.632 | 0.411 |
| NCI-H1755 | 1.03 | 0.978 | 0.978 | 0.992 | 0.817 |

| Cell Line | relative viability (0.04 µM) | relative viability (0.1265 µM) | relative viability (0.4 µM) | relative viability (1.265 µM) | relative viability (4 µM) |
| --- | --- | --- | --- | --- | --- |
| NCI-H1792 | 0.604 | 0.852 | 0.236 | 0.534 | 0.174 |
| NCI-H1793 | – | 0.8 | – | 0.752 | 0.301 |
| NCI-H1915 | 0.992 | 0.784 | 0.784 | 0.734 | 0.489 |
| NCI-H1944 | 0.874 | 0.869 | 0.525 | 0.78 | 0.558 |
| NCI-H1975 | 0.95 | 0.885 | 0.774 | 0.816 | 0.598 |
| NCI-H1993 | – | 0.968 | 0.673 | 0.809 | 0.662 |
| NCI-H2009 | 1.12 | 0.962 | 0.932 | 0.481 | 0.269 |
| NCI-H2023 | 0.941 | 0.957 | 0.557 | 0.569 | 0.445 |
| NCI-H2085 | 1.04 | 0.949 | 0.923 | 0.84 | 0.696 |
| NCI-H2087 | 1.05 | 0.989 | – | 0.566 | 0.293 |
| NCI-H2126 | 0.682 | 0.935 | 0.701 | 0.894 | 0.808 |
| NCI-H2170 | 0.862 | 0.938 | 0.871 | 0.913 | 0.949 |
| NCI-H2228 | 1.13 | 0.954 | 0.407 | 0.776 | 0.428 |
| NCI-H2342 | 0.666 | 1.03 | 0.923 | 0.992 | 0.9 |
| NCI-H2347 | 1.01 | 1.05 | 0.853 | 0.752 | 0.469 |
| NCI-H2405 | 1.01 | 0.934 | 0.901 | 0.943 | 0.462 |
| NCI-H3122 | 1.02 | 0.959 | 0.696 | 0.888 | 0.564 |
| PC-3 [JPC-3] | 0.997 | 1.02 | 0.998 | 0.981 | 0.832 |
| PC-14 | 1.05 | 0.954 | 0.659 | 0.799 | 0.491 |
| RERF-LC-KJ | 1.05 | 0.895 | 0.99 | 0.989 | 0.789 |
| SK-LU-1 | 1.09 | 0.928 | 0.831 | 0.911 | 0.346 |
| SK-MES-1 | 1.06 | 0.921 | 0.886 | 0.748 | 0.35 |
| SW 900 | 0.722 | 0.768 | 0.182 | 0.473 | 0.541 |
| SW 1573 | 0.989 | 0.993 | 0.704 | 0.778 | 0.487 |
| UMC-11 | 0.757 | 0.909 | 0.962 | 0.791 | 0.889 |
